Assay results from patent US12459922B2 (Gilead Sciences, Inc., priority 2022, dated 2025).

Each compound was assayed on endogenous cellular STAT1 (phosphorylated at Tyr701) in NCI-H1373 cells (assay: Phospho-STAT1 (Tyr701) LANCE Ultra TR-FRET Detection Assay). Details: Homo sapiens, NCI-H1373, 48 h, phospho-STAT1 (Tyr701) induction, read-out: NH1373 pSTAT1 EC50.
Type: cell-based
Method: Phospho-STAT1 (Tyr701 LANCE Ultra TR-FRET Detection Assay
d. LANCE Ultra phospho-STAT1 (Tyr701) kits are designed for the detection of phosphorylated STAT1 in cell lysates using a simple, homogeneous LANCE Ultra sandwich assay (Cat. #TRF4028M). This assay is intended for assessing compound induction of endogenous levels of cellular STAT1 (phosphorylated at Tyr701) in NCI-H1373 cells. The NCI-H1373 cells are cultured in RPMI 1640 media containing 10% heat inactivated FBS, GlutaMAX, 1% Penicillin-Streptomycin. An Echo acoustic liquid handler is used to transfer 60 nanoliters of compound dilutions using the Echo Qualified, 384-well polypropylene microplate clear flat bottom source plates into a Greiner (#781080) cell culture microplate. NCI-H1373 cells are seeded into these compound-spotted culture plates at 30,000 cells/well in a 60 uL volume in growth media. The plates are incubated in a 5% CO2 humidified incubator at 37° C. for 48 hours. […] After spinning the plate down at 300 rpm for 1 min, the plate is read on an EnVision plate reader set up for Eu3+ Cryptate and fluorescence emission is measured at two different wavelengths (665 nm and 620 nm). The HTRF ratio is then calculated […] for each well to determine the amount of pSTAT1 in the cell lysate, and the data is then normalized to 10 uM GS-1154611 positive and DMSO negative controls.
`O=c1[nH]ncc(N[C@H](CCCn2ccc3cc(-c4ccc(C(F)F)cn4)c(F)cc3c2=O)COC(F)F)c1C(F)(F)F` [Example 401, (R)-2-(5-(difluoromethoxy)-4-((6-oxo-5-(trifluoromethyl)-1,6-dihydropyridazin-4-yl)amino)pentyl)-6-(5-(difluoromethyl)pyridin-2-yl)-7-fluoroisoquinolin-1(2H)-one] was tested, and the EC50 was 1.63 nM.
Compound `C[C@@H](CCCn1cnc2cc(-c3cnc(C(F)(F)F)c(N)n3)c(F)cc2c1=O)Nc1cn[nH]c(=O)c1C(F)(F)F` [Example 337, (S)-7-(6-amino-5-(trifluoromethyl)pyrazin-2-yl)-6-fluoro-3-(4-((6-oxo-5-(trifluoromethyl)-1,6-dihydropyridazin-4-yl)amino)pentyl)quinazolin-4(3H)-one] has an EC50 of 36.6 nM.
In the case of `CC(C)c1cnc(-c2cc3ccn(CCC[C@H](C)Nc4cn[nH]c(=O)c4C(F)(F)F)c(=O)c3cc2F)nc1N` [Example 325, (S)-6-(4-amino-5-isopropylpyrimidin-2-yl)-7-fluoro-2-(4-((6-oxo-5-(trifluoromethyl)-1,6-dihydropyridazin-4-yl)amino)pentyl)isoquinolin-1(2H)-one], the EC50 is reported as 10.6 nM.
With `O=c1[nH]ncc(N[C@H]2CCC[C@@H](Cn3ccc4cc(-c5cnc(C(F)F)cn5)c(F)cc4c3=O)C2)c1C(F)(F)F` [Example 258, 6-(5-(difluoromethyl)pyrazin-2-yl)-7-fluoro-2-(((1R,3S)-3-((6-oxo-5-(trifluoromethyl)-1,6-dihydropyridazin-4-yl)amino)cyclohexyl)methyl)isoquinolin-1(2H)-one] the EC50 was 31.7 nM.
In the case of `COc1cnc(-c2cc3ccn(C/C=C/[C@H](C)Nc4cn[nH]c(=O)c4C(F)(F)F)c(=O)c3cc2F)nc1N` [Example 134, (S,E)-6-(4-amino-5-methoxypyrimidin-2-yl)-7-fluoro-2-(4-((6-oxo-5-(trifluoromethyl)-1,6-dihydropyridazin-4-yl)amino)pent-2-en-1-yl)isoquinolin-1(2H)-one], the EC50 is reported as 5.19 nM.
Compound `Nc1nc(-c2cc3ccn(CCC[C@@H](Nc4cn[nH]c(=O)c4C(F)(F)F)C4CC4)c(=O)c3cc2F)ncc1C(F)F` [Example 147] has an EC50 of 39.1 nM.
For `COc1cnc(-c2cc3ncn(CCC[C@H](COC(F)F)Nc4cn[nH]c(=O)c4C(F)(F)F)c(=O)c3cc2F)nc1N` [Example 393, (R)-7-(4-amino-5-methoxypyrimidin-2-yl)-3-(5-(difluoromethoxy)-4-((6-oxo-5-(trifluoromethyl)-1,6-dihydropyridazin-4-yl)amino)pentyl)-6-fluoroquinazolin-4(3H)-one], the EC50 was 22.7 nM.
`N#Cc1cn(C[C@@H]2CCC[C@H](Nc3cn[nH]c(=O)c3C(F)(F)F)C2)c(=O)c2cc(F)c(-c3ncc(C(F)(F)F)cn3)cc12` [Example 483, 7-fluoro-1-oxo-2-(((1R,3S)-3-((6-oxo-5-(trifluoromethyl)-1,6-dihydropyridazin-4-yl)amino)cyclohexyl)methyl)-6-(5-(trifluoromethyl)pyrimidin-2-yl)-1,2-dihydroisoquinoline-4-carbonitrile] gave an EC50 of 4.71 nM.
Work on `[2H]C([2H])([2H])OC[C@@H](CCCn1ccc2cc(-c3ccc(C(F)(F)F)cn3)c(F)cc2c1=O)Nc1cn[nH]c(=O)c1C(F)(F)F` [Example 434] yielded an EC50 of 13 nM.
With `CC[C@@H](CCCn1ccc2cc(-c3cnc(C(F)(F)F)c(N)n3)c(F)cc2c1=O)Nc1cn[nH]c(=O)c1C(F)(F)F` [Example 339, (S)-6-(6-amino-5-(trifluoromethyl)pyrazin-2-yl)-7-fluoro-2-(4-((6-oxo-5-(trifluoromethyl)-1,6-dihydropyridazin-4-yl)amino)hexyl)isoquinolin-1(2H)-one] the EC50 was 17.4 nM.
`O=c1[nH]ncc(O[C@H]2CCC[C@@H](Cn3cnc4cc(-c5ncc(C(F)F)cn5)c(F)cc4c3=O)C2)c1C(F)(F)F` [Example 457, 7-(5-(difluoromethyl)pyrimidin-2-yl)-6-fluoro-3-(((1R,3S)-3-((6-oxo-5-(trifluoromethyl)-1,6-dihydropyridazin-4-yl)oxy)cyclohexyl)methyl)quinazolin-4(3H)-one] gave an EC50 of 10.6 nM.
In the case of `CC[C@@H](CCCn1ccc2cc(-c3ncc(OC(F)F)c(N)n3)c(F)c(F)c2c1=O)Nc1cn[nH]c(=O)c1C(F)(F)F` [Example 361, (S)-6-(4-amino-5-(difluoromethoxy)pyrimidin-2-yl)-7,8-difluoro-2-(4-((6-oxo-5-(trifluoromethyl)-1,6-dihydropyridazin-4-yl)amino)hexyl)isoquinolin-1(2H)-one], the EC50 is reported as 10.9 nM.
Work on `COc1cnc(-c2cc3ccn(C[C@@H]4CCC[C@H](Nc5cn[nH]c(=O)c5C(F)(F)F)C4)c(=O)c3cc2F)nc1` [Example 492, 7-fluoro-6-(5-methoxypyrimidin-2-yl)-2-[[(1R,3S)-3-[[6-oxo-5-(trifluoromethyl)-1H-pyridazin-4-yl]amino]cyclohexyl]methyl]isoquinolin-1-one] yielded an EC50 of 7 nM.
For `O=c1[nH]ncc(N[C@H](CCCn2ccc3cc(-c4ncc(C(F)(F)F)cn4)c(F)cc3c2=O)c2nnc(C(F)F)o2)c1C(F)(F)F` [Example 477, 2-[(4R)-4-[5-(difluoromethyl)-1,3,4-oxadiazol-2-yl]-4-[[6-oxo-5-(trifluoromethyl)-1H-pyridazin-4-yl]amino]butyl]-7-fluoro-6-[5-(trifluoromethyl)pyrimidin-2-yl]isoquinolin-1-one], the EC50 was 18.4 nM.
In the case of `C[C@H](Nc1cn[nH]c(=O)c1C(F)(F)F)[C@H](O)CCn1ccc2cc(-c3ncc(C(F)(F)F)cn3)c(F)cc2c1=O` [Example 445, 7-fluoro-2-((3R,4S)-3-hydroxy-4-((6-oxo-5-(trifluoromethyl)-1,6-dihydropyridazin-4-yl)amino)pentyl)-6-(5-(trifluoromethyl)pyrimidin-2-yl)isoquinolin-1(2H)-one], the EC50 is reported as 18.5 nM.
`Nc1nc(-c2cc3ncn(CCC[C@H](COC(F)F)Nc4cn[nH]c(=O)c4C(F)(F)F)c(=O)c3cc2F)ncc1Cl` [Example 426, (R)-7-(4-amino-5-chloropyrimidin-2-yl)-3-(5-(difluoromethoxy)-4-((6-oxo-5-(trifluoromethyl)-1,6-dihydropyridazin-4-yl)amino)pentyl)-6-fluoroquinazolin-4(3H)-one] was tested, and the EC50 was 14.2 nM.
`C[C@@H](CCCn1ccc2cc(-c3ncc(N)cn3)c(F)cc2c1=O)Nc1cn[nH]c(=O)c1C(F)(F)F` [Example 199, (S)-6-(5-aminopyrimidin-2-yl)-7-fluoro-2-(4-((6-oxo-5-(trifluoromethyl)-1,6-dihydropyridazin-4-yl)amino)pentyl)isoquinolin-1(2H)-one] was tested, and the EC50 was 317 nM.
In the case of `O=c1[nH]ncc(N[C@H]2CCC[C@@H]2CCn2cnc3cc(-c4ncc(Cl)cn4)c(F)cc3c2=O)c1C(F)(F)F` [Example 448, 7-(5-chloropyrimidin-2-yl)-6-fluoro-3-(2-((1R,2S)-2-((6-oxo-5-(trifluoromethyl)-1,6-dihydropyridazin-4-yl)amino)cyclopentyl)ethyl)quinazolin-4(3H)-one], the EC50 is reported as 6.82 nM.
Compound `O=c1[nH]ncc(N2CC[C@H]2CCCn2ccc3cc(-c4ncc(C(F)(F)F)cn4)c(F)cc3c2=O)c1C(F)(F)F` (single isomer, unassigned) [Example 149] has an EC50 of 3.98 nM.
Work on `[2H]C([2H])([2H])OC[C@@H](CCCn1cnc2cc(-c3ncc(C(F)F)cn3)c(F)cc2c1=O)Nc1cn[nH]c(=O)c1C(F)(F)F` [Example 431] yielded an EC50 of 6.42 nM.
Compound `C[C@@H](CCCn1ccc2cc(-c3nc(N4CCOCC4)c4sccc4n3)c(F)cc2c1=O)Nc1cn[nH]c(=O)c1C(F)(F)F` [Example 298, (S)-7-fluoro-6-(4-morpholinothieno[3,2-d]pyrimidin-2-yl)-2-(4-((6-oxo-5-(trifluoromethyl)-1,6-dihydropyridazin-4-yl)amino)pentyl)isoquinolin-1(2H)-one] has an EC50 of 32 nM.
For `CC[C@@H](CCCn1cnc2cc(-c3ncc(C(F)(F)F)c(N)n3)c(F)cc2c1=O)Nc1cn[nH]c(=O)c1C(F)(F)F` [Example 321, (S)-7-(4-amino-5-(trifluoromethyl)pyrimidin-2-yl)-6-fluoro-3-(4-((6-oxo-5-(trifluoromethyl)-1,6-dihydropyridazin-4-yl)amino)hexyl)quinazolin-4(3H)-one], the EC50 was 4.11 nM.
Compound `Nc1nc(-c2cc3ccn(C[C@H]4CCC[C@H](Nc5cn[nH]c(=O)c5C(F)(F)F)C4)c(=O)c3cc2F)ncc1C(F)(F)F` [Example 227, 6-(4-amino-5-(trifluoromethyl)pyrimidin-2-yl)-7-fluoro-2-(((1S,3S)-3-((6-oxo-5-(trifluoromethyl)-1,6-dihydropyridazin-4-yl)amino)cyclohexyl)methyl)isoquinolin-1(2H)-one] has an EC50 of 15.7 nM.
Work on `O=c1[nH]ncc(O[C@H]2CCC[C@@H](Cn3ccc4cc(-c5ncc(C(F)(F)F)cn5)c(F)cc4c3=O)C2)c1C(F)(F)F` [Example 454, 7-fluoro-2-(((1R,3S)-3-((6-oxo-5-(trifluoromethyl)-1,6-dihydropyridazin-4-yl)oxy)cyclohexyl)methyl)-6-(5-(trifluoromethyl)pyrimidin-2-yl)isoquinolin-1(2H)-one] yielded an EC50 of 7.48 nM.
For `O=c1[nH]ncc(N[C@H]2CCC[C@H](Cn3ccc4cc(-c5ncc(C(F)(F)F)cn5)c(F)cc4c3=O)C2)c1C(F)(F)F` [Example 228, 7-fluoro-2-(((1S,3S)-3-((6-oxo-5-(trifluoromethyl)-1,6-dihydropyridazin-4-yl)amino)cyclohexyl)methyl)-6-(5-(trifluoromethyl)pyrimidin-2-yl)isoquinolin-1(2H)-one], the EC50 was 10000 nM.
